From patent US6342537B1, “Gel for treatment of skin diseases and for disinfection of the skin” (priority 1994, dated 2002)
Where “and” joins values, the source holds several entries; their conditions need not be identical. Equal entries are not always repeated.

System: herpes simplex virus (HSV) type 1
Test: Inactivation of herpes simplex virus in infected MRC-5 cells by alcohols (Example 25); for HSV - CPE after 44 hours with the detecting cell-layer: key: 0: no CPE; 1: a few; 2: several; 3: all cells infected with HSV
Format: cell-based
Conditions: for HSV - CPE after 44 hours with the detecting cell-layer: duplicate wells; for inactivation of herpes simplex virus (in words): HSV type 1 infected MRC-5 cells
Protocol: Ethanol is an accepted disinfectant for viruses with an envelope. The purpose of this study was to measure the inactivating effect of “short-chained alcohols” on virus-infected cells.
Four 96 well plates with confluent MRC-5 cell were infected with herpes simplex virus (HSV) type 1. After appearance of 50% cytopathic effect (CPE), the culture medium was removed, and rows of 12 wells were treated with 25 μl/well of the alcohols or buffer after the following scheme: The first row with undiluted, and the following with 96%, 90%, 80%, 70%, 60% and 50% alcohol, respectively—all dilutions performed in buffer (PBS). To the last row was added buffer. After 2, 4, 8, 16 and 32 min, respectively, two wells in each row were emptied and the cells overlaid with PBS. The plate was then frozen at —80° C. Afterwards the wells were seeded with a detection layer of MRC-5 cells and the plates were placed at 37° C. for 44 hours. Virus surviving the treatment with alcohol was detected by the appearance of CPE, characteristic for HSV in the detection monolayer.

[1] = alcohol undiluted, 2 min with alcohol

Row | Compound | HSV - CPE after 44 hours with the detecting cell-layer (50% alcohol in PBS, 2 min) | HSV - CPE after 44 hours with the detecting cell-layer (50% alcohol in PBS, 4 min) | HSV - CPE after 44 hours with the detecting cell-layer (50% alcohol in PBS, 8 min) | HSV - CPE after 44 hours with the detecting cell-layer (50% alcohol in PBS, 16 min) | HSV - CPE after 44 hours with the detecting cell-layer (50% alcohol in PBS, 32 min) | HSV - CPE after 44 hours with the detecting cell-layer (60% alcohol in PBS, 2 min) | HSV - CPE after 44 hours with the detecting cell-layer (60% alcohol in PBS, 4 min) | HSV - CPE after 44 hours with the detecting cell-layer (60% alcohol in PBS, 8 min) | HSV - CPE after 44 hours with the detecting cell-layer (60% alcohol in PBS, 16 min) | HSV - CPE after 44 hours with the detecting cell-layer (60% alcohol in PBS, 32 min) | HSV - CPE after 44 hours with the detecting cell-layer (70% alcohol in PBS, 2 min) | HSV - CPE after 44 hours with the detecting cell-layer (70% alcohol in PBS, 4 min) | HSV - CPE after 44 hours with the detecting cell-layer (70% alcohol in PBS, 8 min) | HSV - CPE after 44 hours with the detecting cell-layer (70% alcohol in PBS, 16 min) | HSV - CPE after 44 hours with the detecting cell-layer (70% alcohol in PBS, 32 min) | HSV - CPE after 44 hours with the detecting cell-layer (80% alcohol in PBS, 2 min) | HSV - CPE after 44 hours with the detecting cell-layer (80% alcohol in PBS, 4 min) | HSV - CPE after 44 hours with the detecting cell-layer (80% alcohol in PBS, 8 min) | HSV - CPE after 44 hours with the detecting cell-layer (80% alcohol in PBS, 16 min) | HSV - CPE after 44 hours with the detecting cell-layer (80% alcohol in PBS, 32 min) | further results
1 | CCO [Ethanol] | 3 | 3 | 3 | 3 | 3 | 3 | 3 | 3 | 3 | 3 | 3 | 3 | 3 | 3 | 3 | 2 | 2 | 2 | 2 | 2 | HSV - CPE after 44 hours with the detecting cell-layer (90% alcohol in PBS, 2 min): 1; HSV - CPE after 44 hours with the detecting cell-layer (90% alcohol in PBS, 4 min): 1 and 0; HSV - CPE after 44 hours with the detecting cell-layer (90% alcohol in PBS, 8 min): 0; HSV - CPE after 44 hours with the detecting cell-layer (90% alcohol in PBS, 16 min): 0; HSV - CPE after 44 hours with the detecting cell-layer (90% alcohol in PBS, 32 min): 0; HSV - CPE after 44 hours with the detecting cell-layer (96% alcohol in PBS, 2 min): 1; HSV - CPE after 44 hours with the detecting cell-layer (96% alcohol in PBS, 4 min): 1 and 0; HSV - CPE after 44 hours with the detecting cell-layer (96% alcohol in PBS, 8 min): 0; HSV - CPE after 44 hours with the detecting cell-layer (96% alcohol in PBS, 16 min): 0; HSV - CPE after 44 hours with the detecting cell-layer (96% alcohol in PBS, 32 min): 0; inactivation of herpes simplex virus (in words): able to inactivate herpes simplex virus even intracellular virus; HSV - CPE after 44 hours with the detecting cell-layer [1]: 0; HSV - CPE after 44 hours with the detecting cell-layer (alcohol undiluted, 4 min): 0; HSV - CPE after 44 hours with the detecting cell-layer (alcohol undiluted, 8 min): 0; HSV - CPE after 44 hours with the detecting cell-layer (alcohol undiluted, 16 min): 0; HSV - CPE after 44 hours with the detecting cell-layer (alcohol undiluted, 32 min): 0
2 | CCCO [Propanol] | 2 | 3 | 3 and 2 | 3 and 2 | 1 | 1 and 2 | 2 and 1 | 1 and 0 | 1 and 0 | 0 | 1 and 2 | 1 and 0 | 1 and 0 | 0 | 0 | 0 | 0 | 0 and 1 | 0 | 0 | HSV - CPE after 44 hours with the detecting cell-layer (90% alcohol in PBS, 2 min): 0; HSV - CPE after 44 hours with the detecting cell-layer (90% alcohol in PBS, 4 min): 0; HSV - CPE after 44 hours with the detecting cell-layer (90% alcohol in PBS, 8 min): 0; HSV - CPE after 44 hours with the detecting cell-layer (90% alcohol in PBS, 16 min): 0; HSV - CPE after 44 hours with the detecting cell-layer (90% alcohol in PBS, 32 min): 0; HSV - CPE after 44 hours with the detecting cell-layer (96% alcohol in PBS, 2 min): 0; HSV - CPE after 44 hours with the detecting cell-layer (96% alcohol in PBS, 4 min): 0; HSV - CPE after 44 hours with the detecting cell-layer (96% alcohol in PBS, 8 min): 0; HSV - CPE after 44 hours with the detecting cell-layer (96% alcohol in PBS, 16 min): 0; HSV - CPE after 44 hours with the detecting cell-layer (96% alcohol in PBS, 32 min): 0; inactivation of herpes simplex virus (in words): able to inactivate herpes simplex virus even intracellular virus; HSV - CPE after 44 hours with the detecting cell-layer [1]: 0; HSV - CPE after 44 hours with the detecting cell-layer (alcohol undiluted, 4 min): 0; HSV - CPE after 44 hours with the detecting cell-layer (alcohol undiluted, 8 min): 0; HSV - CPE after 44 hours with the detecting cell-layer (alcohol undiluted, 16 min): 0; HSV - CPE after 44 hours with the detecting cell-layer (alcohol undiluted, 32 min): 0
3 | CC(C)O [Isopropanol] | 3 and 2 | 3 and 2 | 3 | 3 and 2 | 3 | 2 | 1 | 2 and 1 | 2 and 3 | 3 | 2 | 1 | 1 and 0 | 1 | 0 and 2 | 1 | 0 and 1 | 1 | 0 and 1 | 1 and 3 | HSV - CPE after 44 hours with the detecting cell-layer (90% alcohol in PBS, 2 min): 0 and 1; HSV - CPE after 44 hours with the detecting cell-layer (90% alcohol in PBS, 4 min): 0; HSV - CPE after 44 hours with the detecting cell-layer (90% alcohol in PBS, 8 min): 0; HSV - CPE after 44 hours with the detecting cell-layer (90% alcohol in PBS, 16 min): 0; HSV - CPE after 44 hours with the detecting cell-layer (90% alcohol in PBS, 32 min): 0; HSV - CPE after 44 hours with the detecting cell-layer (96% alcohol in PBS, 2 min): 0; HSV - CPE after 44 hours with the detecting cell-layer (96% alcohol in PBS, 4 min): 0; HSV - CPE after 44 hours with the detecting cell-layer (96% alcohol in PBS, 8 min): 0; HSV - CPE after 44 hours with the detecting cell-layer (96% alcohol in PBS, 16 min): 0; HSV - CPE after 44 hours with the detecting cell-layer (96% alcohol in PBS, 32 min): 0; inactivation of herpes simplex virus (in words): able to inactivate herpes simplex virus even intracellular virus; HSV - CPE after 44 hours with the detecting cell-layer [1]: 0; HSV - CPE after 44 hours with the detecting cell-layer (alcohol undiluted, 4 min): 0; HSV - CPE after 44 hours with the detecting cell-layer (alcohol undiluted, 8 min): 0; HSV - CPE after 44 hours with the detecting cell-layer (alcohol undiluted, 16 min): 0; HSV - CPE after 44 hours with the detecting cell-layer (alcohol undiluted, 32 min): 0
4 | Butanol | 0 and 2 | 2 | 2 | 0 | 1 and 0 | 0 and 2 | 2 | 2 and 0 | 0 | 1 and 0 | 0 | 0 and 1 | 1 and 0 | 0 and 1 | 1 | 0 | 0 and 1 | 1 and 0 | 0 | 1 and 0 | HSV - CPE after 44 hours with the detecting cell-layer (90% alcohol in PBS, 2 min): 0; HSV - CPE after 44 hours with the detecting cell-layer (90% alcohol in PBS, 4 min): 0 and 1; HSV - CPE after 44 hours with the detecting cell-layer (90% alcohol in PBS, 8 min): 0; HSV - CPE after 44 hours with the detecting cell-layer (90% alcohol in PBS, 16 min): 1 and 0; HSV - CPE after 44 hours with the detecting cell-layer (90% alcohol in PBS, 32 min): 0 and 3; HSV - CPE after 44 hours with the detecting cell-layer (96% alcohol in PBS, 2 min): 0; HSV - CPE after 44 hours with the detecting cell-layer (96% alcohol in PBS, 4 min): 0; HSV - CPE after 44 hours with the detecting cell-layer (96% alcohol in PBS, 8 min): 0 and 2; HSV - CPE after 44 hours with the detecting cell-layer (96% alcohol in PBS, 16 min): 0; HSV - CPE after 44 hours with the detecting cell-layer (96% alcohol in PBS, 32 min): 0; inactivation of herpes simplex virus (in words): able to inactivate herpes simplex virus even intracellular virus; HSV - CPE after 44 hours with the detecting cell-layer [1]: 0; HSV - CPE after 44 hours with the detecting cell-layer (alcohol undiluted, 4 min): 0; HSV - CPE after 44 hours with the detecting cell-layer (alcohol undiluted, 8 min): 0; HSV - CPE after 44 hours with the detecting cell-layer (alcohol undiluted, 16 min): 0; HSV - CPE after 44 hours with the detecting cell-layer (alcohol undiluted, 32 min): 0
